# Data: patent publication US4656166A, “Antibiotic compounds derived from cephalosporins, process for their production and pharmaceutical compositions” (Sanofi, priority 1983, dated 1987)
# Legend:
# Type in all cases: cell-based
# Escherichia coli SOL 90 = assay: MIC, in vitro dilution method, Escherichia coli SOL 90 (Table III); details: SOL90; Escherichia coli SOL 90; dilution method; read-out: MIC
# From the text: (§1) The products of the invention have been studied as regards their pharmacological properties and, more especially, bacteriostatic action. This has been determined in vitro by the dilution method, and the study was on Gram negative strains.
# (§2) Results, expressed in minimum inhibiting concentrations (MIC-- μg/ml), are collected in the following table (Table III).
# Citrobacter RL 49 = assay: MIC, in vitro dilution method, Citrobacter RL 49 (Table III); details: RL49; Citrobacter RL 49; dilution method; read-out: MIC
# From the text: as §1, §2
# [1] = test system: Proteus vulgaris RL 99 bis; assay: MIC, in vitro dilution method, Proteus vulgaris RL 99 bis (Table III); details: RL99BIS; Proteus vulgaris RL 99 bis; dilution method; read-out: MIC
# From the text: as §1, §2
# Serratia RL 72 = assay: MIC, in vitro dilution method, Serratia RL 72 (Table III); details: RL72
# From the text: as §1, §2
# Klebsiella RO 30 = assay: MIC, in vitro dilution method, Klebsiella RO 30 (Table III); details: RO30; Klebsiella RO 30; dilution method; read-out: MIC
# From the text: as §1, §2
# Enterobacter RO 154 = assay: MIC, in vitro dilution method, Enterobacter RO 154 (Table III); details: RO154; Enterobacter RO 154; dilution method; read-out: MIC
# From the text: as §1, §2
# Pseudomonas RL 112 = assay: MIC, in vitro dilution method, Pseudomonas RL 112 (Table III); details: RL112
# From the text: as §1, §2
SMILES,MIC (Escherichia coli SOL 90) [mg/L],MIC (Citrobacter RL 49) [mg/L],MIC [1] [mg/L],MIC (Serratia RL 72) [mg/L],MIC (Klebsiella RO 30) [mg/L],MIC (Enterobacter RO 154) [mg/L],MIC (Pseudomonas RL 112) [mg/L]
CC(C)(ON=C(C(=O)NC1C(=O)N2C(C(=O)O)=C(COC(=O)CC(N)c3ccccc3)C[S+]([O-])C12)c1csc(N)n1)C(=O)O (stereo not drawn) [42 026],0.5,0.25,≤ 0.12,1,0.25,4,8
CNCC(=O)Nc1ccc(C(=O)OCC2=C(C(=O)O)N3C(=O)C(NC(=O)C(=NOC(C)(C)C(=O)O)c4csc(N)n4)C3[S+]([O-])C2)cc1 (stereo not drawn) [42 584],0.25,–,–,–,0.25,2,4
Cc1cc(CN)ccc1C(=O)SCC1=C(C(=O)O)N2C(=O)C(NC(=O)C(=NOC3(C(=O)O)CCC3)c3csc(N)n3)C2[S+]([O-])C1 (stereo not drawn) [compound 42851],0.5,–,–,–,0.25,1,8
NC[C@H]1CC[C@H](C(=O)OCC2=C(C(=O)O)N3C(=O)C(NC(=O)/C(=N\OCC(=O)O)c4csc(N)n4)C3[S+]([O-])C2)CC1 (stereo partly drawn) [42 211],≤ 0.12,≤ 0.12,≤ 0.12,≤ 0.12,≤ 0.12,≤ 0.12,64
CCC(C)C(N)C(=O)OCC1=C(C(=O)O)N2C(=O)C(NC(=O)C(=NOC(C)(C)C(=O)O)c3csc(N)n3)C2[S+]([O-])C1 (stereo not drawn) [41 860],2,1,0.5,4,0.5,8,16
Cc1nc(NC(=O)CN)sc1C(=O)OCC1=C(C(=O)O)N2C(=O)C(NC(=O)C(=NOC(C)(C)C(=O)O)c3csc(N)n3)C2[S+]([O-])C1 (stereo not drawn) [42 690],0.5,–,–,–,0.5,8,4
CC(N)C(=O)Nc1nc(C(=O)OCC2=C(C(=O)O)N3C(=O)C(NC(=O)C(=NOC(C)(C)C(=O)O)c4csc(N)n4)C3[S+]([O-])C2)cs1 (stereo not drawn) [42 857],0.5,–,–,–,1,8,8
CC(C)(ON=C(C(=O)NC1C(=O)N2C(C(=O)O)=C(COC(=O)c3ccc(NC(=O)C4CCNCC4)cc3)C[S+]([O-])C12)c1csc(N)n1)C(=O)O (stereo not drawn) [42 815],0.125,–,–,–,0.25,8,8
Cc1c(NC(=O)CN)cccc1C(=O)OCC1=C(C(=O)O)N2C(=O)C(NC(=O)C(=NOC(C)(C)C(=O)O)c3csc(N)n3)C2[S+]([O-])C1 (stereo not drawn) [42 585],0.25,–,–,–,0.25,8,4
Cc1cc(CN)ccc1C(=O)OCC1=C(C(=O)O)N2C(=O)C(NC(=O)C(=NOC3(C(=O)O)CCC3)c3csc(N)n3)C2[S+]([O-])C1 (stereo not drawn) [42 849],0.125,–,–,–,0.125,2,4
NCC(=O)Nc1ccc(C(=O)SCC2=C(C(=O)O)N3C(=O)C(NC(=O)C(=NOC4(C(=O)O)CCC4)c4csc(N)n4)C3[S+]([O-])C2)cc1 (stereo not drawn) [compound 42665],0.5,–,–,–,0.5,2,8
CC(C)(ON=C(C(=O)NC1C(=O)N2C(C(=O)O)=C(COC(=O)C3CCN(C(=O)CCN)CC3)C[S+]([O-])C12)c1csc(N)n1)C(=O)O (stereo not drawn) [42 782],0.25,–,–,–,0.125,2,4
CN(C(=O)CN)c1ccc(C(=O)OCC2=C(C(=O)O)N3C(=O)C(NC(=O)C(=NOC(C)(C)C(=O)O)c4csc(N)n4)C3[S+]([O-])C2)cc1 (stereo not drawn) [42 657],0.25,–,–,–,0.25,4,8
CC(N)C(=O)N1CCC(C(=O)OCC2=C(C(=O)O)N3C(=O)C(NC(=O)C(=NOC(C)(C)C(=O)O)c4csc(N)n4)C3[S+]([O-])C2)CC1 (stereo not drawn) [42 781],0.25,–,–,–,0.125,2,4
CC(C)(ON=C(C(=O)NC1C(=O)N2C(C(=O)O)=C(COC(=O)c3ccc(CN)c(Br)c3)C[S+]([O-])C12)c1csc(N)n1)C(=O)O (stereo not drawn) [42 676],0.25,–,–,–,0.25,2,8
CC(C)(ON=C(C(=O)NC1C(=O)N2C(C(=O)O)=C(COC(=O)c3csc(NC(=O)CCN)n3)C[S+]([O-])C12)c1csc(N)n1)C(=O)O (stereo not drawn) [42 587],0.25,–,–,–,0.25,8,4
CC(C)(ON=C(C(=O)NC1C(=O)N2C(C(=O)O)=C(COC(=O)c3ccc(NC(=O)CCCCN)cc3)C[S+]([O-])C12)c1csc(N)n1)C(=O)O (stereo not drawn) [42 689],0.125,–,–,–,0.25,4,4
Cc1c(NC(=O)CCN)cccc1C(=O)OCC1=C(C(=O)O)N2C(=O)C(NC(=O)C(=NOC(C)(C)C(=O)O)c3csc(N)n3)C2[S+]([O-])C1 (stereo not drawn) [42 586],0.25,–,–,–,0.25,16,4
